{"source": "ChEMBL document CHEMBL4680187", "about": "“Optimization of EphA2 antagonists based on a lithocholic acid core led to the identification of UniPR505, a new 3α-carbamoyloxy derivative with antiangiogenetic properties” (Eur J Med Chem, 2020)", "key": {"Ephrin type-A receptor 8": {"molecular_target": "T1, Ephrin type-A receptor 8 (Mus musculus, UniProt O09127)", "T1 sequence (O09127 whole entry)": "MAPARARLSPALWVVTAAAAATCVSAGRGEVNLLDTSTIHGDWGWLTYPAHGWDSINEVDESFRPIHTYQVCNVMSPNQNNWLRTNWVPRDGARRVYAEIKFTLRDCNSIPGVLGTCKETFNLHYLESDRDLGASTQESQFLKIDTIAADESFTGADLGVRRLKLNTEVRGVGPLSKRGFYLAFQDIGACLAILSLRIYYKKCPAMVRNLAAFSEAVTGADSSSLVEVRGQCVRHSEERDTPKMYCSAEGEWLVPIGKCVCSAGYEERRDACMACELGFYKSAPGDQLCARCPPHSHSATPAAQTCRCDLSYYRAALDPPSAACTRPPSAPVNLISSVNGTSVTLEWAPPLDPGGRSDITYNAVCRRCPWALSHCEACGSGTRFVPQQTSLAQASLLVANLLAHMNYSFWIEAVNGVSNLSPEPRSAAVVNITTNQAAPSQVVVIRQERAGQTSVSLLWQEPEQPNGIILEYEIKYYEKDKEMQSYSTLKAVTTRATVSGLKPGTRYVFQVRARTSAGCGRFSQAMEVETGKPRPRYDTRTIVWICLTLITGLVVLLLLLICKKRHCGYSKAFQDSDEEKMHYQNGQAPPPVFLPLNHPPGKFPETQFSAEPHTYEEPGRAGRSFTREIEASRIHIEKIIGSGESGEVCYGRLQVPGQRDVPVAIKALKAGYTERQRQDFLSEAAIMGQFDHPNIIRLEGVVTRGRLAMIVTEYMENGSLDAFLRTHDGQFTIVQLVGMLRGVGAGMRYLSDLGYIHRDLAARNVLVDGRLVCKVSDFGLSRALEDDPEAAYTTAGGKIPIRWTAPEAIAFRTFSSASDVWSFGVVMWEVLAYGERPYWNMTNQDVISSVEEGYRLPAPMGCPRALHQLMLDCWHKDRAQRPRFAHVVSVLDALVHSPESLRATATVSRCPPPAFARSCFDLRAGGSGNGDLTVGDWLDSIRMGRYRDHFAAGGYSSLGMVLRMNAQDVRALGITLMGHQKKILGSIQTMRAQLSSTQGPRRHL", "test": "Displacement of biotinylated ephrin-A1-Fc from mouse EphA8 Fc preincubated for 1 hr followed by ephrin-A1-FC addition and measured after 4 hrs by ELISA"}, "Ephrin type-B receptor 6": {"molecular_target": "T2, Ephrin type-B receptor 6 (Mus musculus, UniProt O08644)", "T2 sequence (O08644 whole entry)": "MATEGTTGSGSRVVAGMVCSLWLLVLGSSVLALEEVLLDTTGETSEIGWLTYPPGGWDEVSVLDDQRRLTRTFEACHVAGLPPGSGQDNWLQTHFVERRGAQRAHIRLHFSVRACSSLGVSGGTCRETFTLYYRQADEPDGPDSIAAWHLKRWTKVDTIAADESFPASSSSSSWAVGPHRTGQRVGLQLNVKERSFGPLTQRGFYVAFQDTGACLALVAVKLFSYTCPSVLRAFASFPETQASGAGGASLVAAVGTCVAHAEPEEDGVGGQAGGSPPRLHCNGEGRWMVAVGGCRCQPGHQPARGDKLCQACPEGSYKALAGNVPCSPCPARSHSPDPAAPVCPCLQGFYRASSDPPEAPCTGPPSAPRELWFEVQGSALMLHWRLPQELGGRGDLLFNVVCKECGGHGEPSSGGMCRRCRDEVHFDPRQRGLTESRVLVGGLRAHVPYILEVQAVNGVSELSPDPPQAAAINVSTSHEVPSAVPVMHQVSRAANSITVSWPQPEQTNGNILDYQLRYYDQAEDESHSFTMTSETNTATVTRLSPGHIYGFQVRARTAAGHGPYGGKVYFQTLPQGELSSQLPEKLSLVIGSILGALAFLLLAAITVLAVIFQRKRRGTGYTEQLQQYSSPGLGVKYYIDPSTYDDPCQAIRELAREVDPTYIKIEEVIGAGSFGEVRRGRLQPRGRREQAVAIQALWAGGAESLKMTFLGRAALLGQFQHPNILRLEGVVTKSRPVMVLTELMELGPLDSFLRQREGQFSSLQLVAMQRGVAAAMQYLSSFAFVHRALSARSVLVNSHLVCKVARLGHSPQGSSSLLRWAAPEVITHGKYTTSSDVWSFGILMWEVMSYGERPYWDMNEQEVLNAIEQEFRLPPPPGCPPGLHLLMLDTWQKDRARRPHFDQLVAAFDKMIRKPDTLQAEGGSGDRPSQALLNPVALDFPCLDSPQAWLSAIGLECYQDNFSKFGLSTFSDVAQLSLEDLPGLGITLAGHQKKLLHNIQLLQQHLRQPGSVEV", "test": "Displacement of biotinylated ephrin-B1-Fc from mouse EphB6 Fc preincubated for 1 hr followed by ephrin-B1-FC addition and measured after 4 hrs by ELISA"}, "HUVEC": {"tested_on": "HUVEC", "test": "Cytotoxicity against HUVEC cells upto 30 uM after 16 hrs by MTT assay", "format": "cell-based", "details": "human"}, "Ephrin type-A receptor 4": {"molecular_target": "Ephrin type-A receptor 4 (Mus musculus, UniProt Q03137)", "sequence (Q03137 whole entry)": "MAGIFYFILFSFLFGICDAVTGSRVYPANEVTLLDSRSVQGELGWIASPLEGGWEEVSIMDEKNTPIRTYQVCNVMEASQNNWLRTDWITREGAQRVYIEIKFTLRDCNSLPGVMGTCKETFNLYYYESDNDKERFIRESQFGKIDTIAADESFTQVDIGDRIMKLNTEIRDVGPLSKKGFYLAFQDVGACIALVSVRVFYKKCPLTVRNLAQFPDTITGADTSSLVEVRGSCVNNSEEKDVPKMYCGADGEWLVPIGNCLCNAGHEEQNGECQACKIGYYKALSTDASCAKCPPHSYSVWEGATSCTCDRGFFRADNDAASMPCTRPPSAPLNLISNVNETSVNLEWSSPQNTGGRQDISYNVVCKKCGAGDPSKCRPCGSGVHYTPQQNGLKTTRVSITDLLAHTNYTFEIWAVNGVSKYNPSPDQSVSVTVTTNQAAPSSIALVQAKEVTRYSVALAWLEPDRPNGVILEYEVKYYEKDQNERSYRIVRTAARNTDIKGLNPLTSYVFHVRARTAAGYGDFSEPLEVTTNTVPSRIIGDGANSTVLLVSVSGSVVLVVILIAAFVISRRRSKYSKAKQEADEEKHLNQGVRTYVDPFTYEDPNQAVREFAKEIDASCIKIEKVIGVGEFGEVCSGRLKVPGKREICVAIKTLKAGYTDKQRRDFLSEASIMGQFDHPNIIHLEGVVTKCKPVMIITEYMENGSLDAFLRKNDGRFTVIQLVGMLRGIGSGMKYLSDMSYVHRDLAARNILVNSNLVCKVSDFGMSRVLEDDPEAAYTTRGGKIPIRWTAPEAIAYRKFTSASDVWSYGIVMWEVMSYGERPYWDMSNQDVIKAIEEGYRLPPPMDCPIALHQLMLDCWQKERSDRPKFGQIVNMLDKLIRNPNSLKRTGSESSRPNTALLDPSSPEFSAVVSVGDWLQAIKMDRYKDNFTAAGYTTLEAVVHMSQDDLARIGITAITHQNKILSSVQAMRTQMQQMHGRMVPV", "test": "Displacement of biotinylated ephrin-A1-Fc from mouse EphA4 Fc preincubated for 1 hr followed by ephrin-A1-FC addition and measured after 4 hrs by ELISA"}, "Ephrin type-A receptor 7": {"molecular_target": "Ephrin type-A receptor 7 (Mus musculus, UniProt Q61772)", "sequence (Q61772 whole entry)": "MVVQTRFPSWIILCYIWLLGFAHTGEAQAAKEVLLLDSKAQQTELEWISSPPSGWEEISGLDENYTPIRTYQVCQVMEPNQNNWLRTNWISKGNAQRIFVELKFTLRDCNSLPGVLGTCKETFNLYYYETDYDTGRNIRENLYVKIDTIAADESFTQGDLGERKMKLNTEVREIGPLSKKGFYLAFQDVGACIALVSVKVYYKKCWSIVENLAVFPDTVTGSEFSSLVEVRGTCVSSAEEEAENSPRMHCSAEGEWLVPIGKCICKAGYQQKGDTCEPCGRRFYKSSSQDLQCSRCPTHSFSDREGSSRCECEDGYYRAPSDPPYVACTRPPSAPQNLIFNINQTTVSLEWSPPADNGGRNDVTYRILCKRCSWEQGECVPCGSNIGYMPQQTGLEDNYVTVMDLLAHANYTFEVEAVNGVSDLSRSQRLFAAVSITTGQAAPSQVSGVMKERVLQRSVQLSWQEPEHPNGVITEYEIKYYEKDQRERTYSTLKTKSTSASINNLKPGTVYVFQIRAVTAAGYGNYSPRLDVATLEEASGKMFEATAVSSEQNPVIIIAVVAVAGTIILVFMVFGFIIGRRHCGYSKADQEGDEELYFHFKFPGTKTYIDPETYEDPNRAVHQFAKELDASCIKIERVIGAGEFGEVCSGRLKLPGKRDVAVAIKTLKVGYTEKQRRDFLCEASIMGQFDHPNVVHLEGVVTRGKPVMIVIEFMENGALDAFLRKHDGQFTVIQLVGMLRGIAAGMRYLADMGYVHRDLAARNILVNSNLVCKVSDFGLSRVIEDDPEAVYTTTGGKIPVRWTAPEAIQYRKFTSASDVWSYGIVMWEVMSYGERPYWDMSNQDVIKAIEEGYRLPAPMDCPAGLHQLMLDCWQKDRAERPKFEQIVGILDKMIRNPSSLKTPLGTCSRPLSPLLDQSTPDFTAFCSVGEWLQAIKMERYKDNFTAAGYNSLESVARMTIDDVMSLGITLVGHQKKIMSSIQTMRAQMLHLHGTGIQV", "test": "Displacement of biotinylated ephrin-A1-Fc from mouse EphA7 Fc preincubated for 1 hr followed by ephrin-A1-FC addition and measured after 4 hrs by ELISA"}, "Chorioallantoic membrane": {"tested_on": "Chorioallantoic membrane", "test": "Antiangiogenic activity in Leghorn chicken fertilized egg chorioallantoic membrane assessed as reduction in VEGF stimulated neovascularization at 10 uM measured after 3 days by CAM assay", "format": "functional, tissue-based", "details": "Gallus gallus, time 3.0 day"}, "Ephrin type-A receptor 5": {"molecular_target": "Ephrin type-A receptor 5 (Rattus norvegicus, UniProt P54757)", "sequence (P54757 whole entry)": "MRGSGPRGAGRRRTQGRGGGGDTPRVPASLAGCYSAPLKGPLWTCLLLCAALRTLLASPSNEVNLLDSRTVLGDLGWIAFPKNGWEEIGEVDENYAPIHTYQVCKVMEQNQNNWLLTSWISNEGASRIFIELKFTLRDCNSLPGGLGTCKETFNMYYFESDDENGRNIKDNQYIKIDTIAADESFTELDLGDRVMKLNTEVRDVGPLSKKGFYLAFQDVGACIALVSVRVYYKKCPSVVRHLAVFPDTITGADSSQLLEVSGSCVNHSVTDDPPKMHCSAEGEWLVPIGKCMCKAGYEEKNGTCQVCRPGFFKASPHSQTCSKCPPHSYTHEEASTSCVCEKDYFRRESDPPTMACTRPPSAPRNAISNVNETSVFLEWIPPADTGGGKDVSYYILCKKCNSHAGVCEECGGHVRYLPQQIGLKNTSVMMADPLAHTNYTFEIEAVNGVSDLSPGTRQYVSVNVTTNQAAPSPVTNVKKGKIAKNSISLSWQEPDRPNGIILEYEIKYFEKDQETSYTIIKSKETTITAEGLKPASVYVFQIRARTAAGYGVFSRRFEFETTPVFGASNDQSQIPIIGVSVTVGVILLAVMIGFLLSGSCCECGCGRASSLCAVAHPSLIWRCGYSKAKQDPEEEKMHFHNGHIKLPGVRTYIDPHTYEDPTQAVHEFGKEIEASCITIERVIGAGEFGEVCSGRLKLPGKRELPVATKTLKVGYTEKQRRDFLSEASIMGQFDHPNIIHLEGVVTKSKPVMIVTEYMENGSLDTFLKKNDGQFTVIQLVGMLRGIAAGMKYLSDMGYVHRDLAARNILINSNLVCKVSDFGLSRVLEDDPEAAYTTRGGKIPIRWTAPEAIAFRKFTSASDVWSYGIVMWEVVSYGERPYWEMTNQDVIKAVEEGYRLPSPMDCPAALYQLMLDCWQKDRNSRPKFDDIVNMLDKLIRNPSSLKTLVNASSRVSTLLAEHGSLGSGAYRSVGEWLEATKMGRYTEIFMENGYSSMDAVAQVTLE", "test": "Displacement of biotinylated ephrin-A1-Fc from rat EphA5 Fc preincubated for 1 hr followed by ephrin-A1-FC addition and measured after 4 hrs by ELISA"}, "Ephrin type-A receptor 2": {"molecular_target": "Ephrin type-A receptor 2 (Mus musculus, UniProt Q03145)", "sequence (Q03145 whole entry)": "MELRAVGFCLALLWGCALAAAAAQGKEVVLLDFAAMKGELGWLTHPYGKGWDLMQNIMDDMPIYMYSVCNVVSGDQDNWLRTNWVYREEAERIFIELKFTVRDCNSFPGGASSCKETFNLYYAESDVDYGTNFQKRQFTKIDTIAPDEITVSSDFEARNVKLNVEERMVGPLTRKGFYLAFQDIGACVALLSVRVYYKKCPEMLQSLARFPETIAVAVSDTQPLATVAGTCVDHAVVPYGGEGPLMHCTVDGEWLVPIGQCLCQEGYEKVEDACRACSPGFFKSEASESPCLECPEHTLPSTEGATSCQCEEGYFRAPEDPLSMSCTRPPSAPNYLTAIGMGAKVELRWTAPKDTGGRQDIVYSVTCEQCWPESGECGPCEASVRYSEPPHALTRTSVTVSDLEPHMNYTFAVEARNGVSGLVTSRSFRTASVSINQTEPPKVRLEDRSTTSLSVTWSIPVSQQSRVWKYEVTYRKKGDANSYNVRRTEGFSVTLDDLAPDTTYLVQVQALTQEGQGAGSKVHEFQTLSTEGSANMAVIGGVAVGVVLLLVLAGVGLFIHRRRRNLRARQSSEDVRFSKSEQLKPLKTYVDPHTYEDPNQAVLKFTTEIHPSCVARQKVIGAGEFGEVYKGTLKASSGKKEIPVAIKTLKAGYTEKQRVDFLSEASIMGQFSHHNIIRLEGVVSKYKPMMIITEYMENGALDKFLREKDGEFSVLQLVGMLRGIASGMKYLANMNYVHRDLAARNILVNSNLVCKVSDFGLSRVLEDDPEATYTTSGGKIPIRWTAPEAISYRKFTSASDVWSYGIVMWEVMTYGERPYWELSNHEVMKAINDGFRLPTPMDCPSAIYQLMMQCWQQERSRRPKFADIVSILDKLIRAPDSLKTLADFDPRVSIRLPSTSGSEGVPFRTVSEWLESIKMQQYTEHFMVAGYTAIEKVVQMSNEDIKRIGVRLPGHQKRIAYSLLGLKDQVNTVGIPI", "test": "Displacement of biotinylated ephrin-A1-Fc from recombinant mouse c-terminal His6-tagged EphA2 Fc (Ala22 to Ala535 residues) preincubated for 1 hr followed by ephrin-A1-FC addition and measured after 4 hrs by ELISA"}}, "note": "Calls of active or inactive are those of the source. The rule behind the calls is not given here.", "data": [{"compound": "CCNC(=O)O[C@@H]1CC[C@@]2(C)[C@H](CC[C@@H]3[C@@H]2CC[C@]2(C)[C@@H]([C@H](C)CCC(=O)N[C@H](CC(=O)O)Cc4c[nH]c5ccccc45)CC[C@@H]32)C1", "values": [{"measurement": "IC50", "setting": "Ephrin type-A receptor 8", "value": 7.7, "unit": "µM"}, {"measurement": "IC50", "setting": "Ephrin type-B receptor 6", "value": "> 30", "unit": "µM"}, {"measurement": "Activity", "setting": "HUVEC", "value": "Non-Toxic"}, {"measurement": "IC50", "setting": "Ephrin type-A receptor 4", "value": 6.4, "unit": "µM"}, {"measurement": "IC50", "setting": "Ephrin type-A receptor 7", "value": "> 30", "unit": "µM"}, {"measurement": "Activity", "setting": "Chorioallantoic membrane", "value": "Active"}, {"measurement": "IC50", "setting": "Ephrin type-A receptor 5", "value": 4.4, "unit": "µM"}, {"measurement": "IC50", "setting": "Ephrin type-A receptor 2", "value": 0.95, "unit": "µM"}]}]}
